Values quoted from earlier work, collected in US6767550B1, “Hydroxyapatite based drug delivery implant for cancer treatment” (Berkeley Advanced Biomaterials, Inc., priority 2000, dated 2004).

Tests used:
[1] = 30 mg/m^2 intravenous bolus dose; 2.5 hours after administration
[2] = cumulative dose of 700 mg.m^2
[3] = in vivo

- marro drug concentration [1]: 0.52 µg/g
- oral absorption [3]: poor oral absorption
SMILES: COc1cccc2c1C(=O)c1c(O)c3c(c(O)c1C2=O)C[C@@](O)(C(=O)CO)C[C@@H]3O[C@H]1C[C@H](N)[C@H](O)[C@H](C)O1 [doxorubicin]
- patients experiencing cardiotoxicity [2]: 30-40%
